Data: ChEMBL document CHEMBL6177973, “A Novel Compound 3a-M1, from Metabolites of Sinomenine Derivative 3a, Exerts Potent Anti-Aplastic Anemia Activity via IP3R/ORAI-Mediated CTL Ferroptosis” (J Med Chem, 2025)
The source made the active and inactive calls. The calls are words filed in the database; no cut-off is given here.

How the values were obtained:
Mus musculus [1] = test: Anti-aplastic anemia activity in C57BL/6J mouse model of immune-mediated bone marrow failure assessed as increase in hemoglobin level treated intragastrically once daily for 21 days; assay type: functional, organism-based; details: dose 5-15 mg/kg, route ig, time 21.0 day
CTLL-2 [2] = test: Induction of ferroptosis in IL-2-stimulated mouse CTLL-2 cells assessed as increase in mitochondrial superoxide level at 30 uM incubated for 6 hrs followed by Fer-1 addition measured after 10 hrs by MitoSOX Red staining based fluorescent microscopy; assay type: functional, cell-based; details: time 16.0 hrs
CTLL-2 [3] = test: Induction of ferroptosis in mouse CTLL-2 cells assessed as increase in ROS level incubated for 16 hrs by DCFH-DA staining based flow cytometry; assay type: functional, cell-based; details: dose 7.5-30 µM
Mus musculus [4] = test: Anti-aplastic anemia activity in C57BL/6J mouse model of immune-mediated bone marrow failure assessed as increase in animal survival at 5 to 15 mg/kg, IG qd treated for 21 days; assay type: functional, organism-based; details: dose 5-15 mg/kg, time 21.0 day
CTLL-2 [5] = test: Induction of ferroptosis in mouse CTLL-2 cells assessed as increase in extracellular Ca2+ influx at 10 uM incubated for 24 hrs in presence of EDTA by Fluo-4 AM dye based analysis; assay type: functional, cell-based
NRK-52E [6] = test: Cytotoxicity against rat NRK-52E cells assessed as inhibition of cell viability incubated for 72 hrs by CCK8 assay; assay type: functional, cell-based
HepG2 [7] = test: Induction of ferroptosis in human HepG2 cells assessed as increase in intracellular Ca2+ concentration at 10 uM by Fluo-4 AM dye based analysis; assay type: functional, cell-based
CTLL-2 [8] = test: Induction of ferroptosis in mouse CTLL-2 cells assessed as increase in intracellular lipid peroxidation level at 30 uM incubated for 16 hrs by flow cytometry; assay type: functional, cell-based
CD8-positive T cell = test: Inhibition of CD3/CD28-activated CD8-positive T cell activation in BALB/c mouse lymph nodes assessed as decrease in glucose consumption at 1 to 10 uM incubated for 72 hrs; assay type: functional, tissue-based; details: Lymph node, dose 1-10 µM
Mus musculus [9] = test: Anti-aplastic anemia activity in BALB/c mouse model of immune-mediated bone marrow failure assessed as restoration of nucleated to red blood cell ratio in bone marrow at 10 mg/kg, po treated for 14 days by H and E staining based analysis; assay type: functional, organism-based; details: time 14.0 day
Mus musculus [10] = test: Anti-aplastic anemia activity in C57BL/6J mouse model of immune-mediated bone marrow failure assessed as increase in white blood cells treated intragastrically once daily for 21 days; assay type: functional, organism-based; details: dose 5-15 mg/kg, route ig, time 21.0 day
NRK-52E [11] = test: Induction of ferroptosis in rat NRK-52E cells assessed as increase in intracellular Ca2+ concentration at 10 uM by Fluo-4 AM dye based analysis; assay type: functional, cell-based
HepG2 [12] = test: Cytotoxicity against human HepG2 cells assessed as inhibition of cell viability incubated for 72 hrs by CCK8 assay; assay type: functional, cell-based; details: HepG2, 72 h
[13] = Acute toxicity in 12 hr-fasted KM mouse assessed as abnormalities in animal at 10 g/kg, po administered as single dose measured for 14 days; assay type: organism-based; details: in vivo, 10000 mg/kg, 336 h, time 14 day
CTLL-2 [14] = test: Induction of ferroptosis in mouse CTLL-2 cells assessed as increase in intracellular Ca2+ concentration in presence of 2-APB/CM4620 by Fluo-4 AM dye based analysis; assay type: functional, cell-based
[15] = Drug metabolism in mouse spleen assessed as (4bR,9S)-1-(hydroxymethyl)-3,7-dimethoxy-11-methyl-6-oxo-6,8a,9,10-tetrahydro-5H-9,4b-(epiminoethano)phenanthren-4-yl cinnamate metabolite formation at 50 mg/kg, po measured for 0.083 to 8 hrs by HPLC analysis; assay type: ADME, organism-based; details: in vivo, time 0.083-8 hrs
[16] = Stability in mouse liver assessed as compound remaining at 50 mg/kg, po measured for 0.083 to 8 hrs by HPLC analysis; assay type: ADME, organism-based; details: in vivo, time 0.083-8 hrs
[17] = Stability in rat plasma at 37 degreeC; assay type: ADME, cell-free
[18] = Drug metabolism in mouse liver assessed as cinnamic acid metabolite formation at 50 mg/kg, po measured for 0.083 to 8 hrs by HPLC analysis; assay type: ADME, organism-based; details: in vivo, time 0.083-8 hrs

Compound: COC1=C[C@@H]2[C@@H]3Cc4c(CO)cc(OC)c(OC(=O)/C=C/c5ccccc5)c4[C@]2(CCN3C)CC1=O
- Activity (Mus musculus [1]): Dose-dependent-effect
- Activity (CTLL-2 [2]): inactive
- Activity (CTLL-2 [3]): Dose-dependent-effect
- Activity (Mus musculus [4]): Active; Improvement Observed During Early Stages Of Bone Marrow Failure
- Activity (CTLL-2 [5]): Active
- IC50 (NRK-52E [6]): 705 µM
- Activity (HepG2 [7]): Not active; Elevation Was Smaller Than In Mouse Ctll-2 Cells
- Activity (CTLL-2 [8]): Active
- inhibition (CD8-positive T cell): Active
- Activity (Mus musculus [9]): Active
- Activity (Mus musculus [10]): Dose-dependent-effect
- Activity (NRK-52E [11]): Not active; Elevation Was Smaller Than In Mouse Ctll-2 Cells
- IC50 (HepG2 [12]): 492 µM
- Activity [13]: Non-toxic
- Activity (CTLL-2 [14]): inactive

Compound: COC1=C[C@@H]2[C@@H]3Cc4c(COC(=O)/C=C/c5ccccc5)cc(OC)c(OC(=O)/C=C/c5ccccc5)c4[C@]2(CCN3C)CC1=O
- Drug metabolism [15]: metabolite_detected
- Stability [16]: Unstable
- Stability [17]: Unstable
- Drug metabolism [18]: metabolite_detected
